In ChEMBL document CHEMBL4627327, “Antibacterial activity of singly and doubly modified salinomycin derivatives” (Bioorg Med Chem Lett, 2020):
Converted amounts (≈) assume the structure as drawn. The source made the active and inactive calls. The rule behind the calls is not given here.

Key:
Pseudomonas aeruginosa [1] = assay: Antibacterial activity against Pseudomonas aeruginosa ATCC 27853 assessed as bacterial growth inhibition measured after 18 hrs by CLSI protocol based two-fold serial microdilution method; format: functional, organism-based
Pseudomonas aeruginosa [2] = assay: Antibacterial activity against Pseudomonas aeruginosa ATCC 15442 assessed as bacterial growth inhibition measured after 18 hrs by CLSI protocol based two-fold serial microdilution method; format: functional, organism-based
Escherichia coli [3] = assay: Antibacterial activity against Escherichia coli ATCC 25922 assessed as bacterial growth inhibition measured after 18 hrs by CLSI protocol based two-fold serial microdilution method; format: functional, organism-based
Escherichia coli [4] = assay: Antibacterial activity against Escherichia coli NCTC 8196 assessed as bacterial growth inhibition measured after 18 hrs by CLSI protocol based two-fold serial microdilution method; format: functional, organism-based
[5] = system: Staphylococcus epidermidis; assay: Antibacterial activity against methicillin-resistant Staphylococcus epidermidis isolate 654 assessed as bacterial growth inhibition measured after 18 hrs by CLSI protocol based two-fold serial microdilution method; format: functional; details: isolate 654, 18 h
[6] = system: Staphylococcus epidermidis; assay: Antibacterial activity against methicillin-resistant Staphylococcus epidermidis isolate 660 assessed as bacterial growth inhibition measured after 18 hrs by CLSI protocol based two-fold serial microdilution method; format: functional; details: isolate 660, 18 h
[7] = system: Staphylococcus epidermidis; assay: Antibacterial activity against methicillin-resistant Staphylococcus epidermidis isolate 574 assessed as bacterial growth inhibition measured after 18 hrs by CLSI protocol based two-fold serial microdilution method; format: functional; details: isolate 574, 18 h
Staphylococcus aureus [8] = assay: Antibacterial activity against methicillin-resistant Staphylococcus aureus isolate 750 assessed as bacterial growth inhibition measured after 18 hrs by CLSI protocol based two-fold serial microdilution method; format: functional; details: isolate 750, 18 h
[9] = system: Staphylococcus epidermidis; assay: Antibacterial activity against methicillin-resistant Staphylococcus epidermidis isolate 602 assessed as bacterial growth inhibition measured after 18 hrs by CLSI protocol based two-fold serial microdilution method; format: functional; details: isolate 602, 18 h
[10] = system: Staphylococcus epidermidis; assay: Antibacterial activity against methicillin-resistant Staphylococcus epidermidis isolate 609 assessed as bacterial growth inhibition measured after 18 hrs by CLSI protocol based two-fold serial microdilution method; format: functional; details: isolate 609, 18 h
[11] = Genotoxicity in rec negative Bacillus subtilis M45 assessed as diameter of inhibition zone at 256 ug measured after 24 hrs by rec-assay; format: toxicity; details: in vivo
Staphylococcus aureus [12] = assay: Antibacterial activity against methicillin-resistant Staphylococcus aureus isolate 584 assessed as bacterial growth inhibition measured after 18 hrs by CLSI protocol based two-fold serial microdilution method; format: functional; details: isolate 584, 18 h
Staphylococcus aureus [13] = assay: Antibacterial activity against methicillin-resistant Staphylococcus aureus isolate 620 assessed as bacterial growth inhibition measured after 18 hrs by CLSI protocol based two-fold serial microdilution method; format: functional; details: isolate 620, 18 h
[14] = Genotoxicity in rec-positive Bacillus subtilis H17 assessed as diameter of inhibition zone at 256 ug measured after 24 hrs by rec-assay; format: toxicity; details: in vivo
Staphylococcus aureus [15] = assay: Antibacterial activity against methicillin-resistant Staphylococcus aureus isolate 621 assessed as bacterial growth inhibition measured after 18 hrs by CLSI protocol based two-fold serial microdilution method; format: functional; details: isolate 621, 18 h
[16] = system: Staphylococcus epidermidis; assay: Antibacterial activity against methicillin-resistant Staphylococcus epidermidis isolate 603 assessed as bacterial growth inhibition measured after 18 hrs by CLSI protocol based two-fold serial microdilution method; format: functional; details: isolate 603, 18 h
[17] = system: Staphylococcus epidermidis; assay: Inhibition of biofilm formation in Staphylococcus epidermidis ATCC 35984 at 1 to 8 ug/ml measured after 24 hrs by crystal violet staining based assay; format: functional, organism-based
Staphylococcus aureus [18] = assay: Antibacterial activity against methicillin-resistant Staphylococcus aureus isolate 770 assessed as bacterial growth inhibition measured after 18 hrs by CLSI protocol based two-fold serial microdilution method; format: functional; details: isolate 770, 18 h
Staphylococcus aureus [19] = assay: Antibacterial activity against methicillin-resistant Staphylococcus aureus isolate 612 assessed as bacterial growth inhibition measured after 18 hrs by CLSI protocol based two-fold serial microdilution method; format: functional; details: isolate 612, 18 h
[20] = system: Staphylococcus epidermidis; assay: Antibacterial activity against methicillin-resistant Staphylococcus epidermidis isolate 610 assessed as bacterial growth inhibition measured after 18 hrs by CLSI protocol based two-fold serial microdilution method; format: functional; details: isolate 610, 18 h
Staphylococcus aureus [21] = assay: Antibacterial activity against methicillin-resistant Staphylococcus aureus isolate 583 assessed as bacterial growth inhibition measured after 18 hrs by CLSI protocol based two-fold serial microdilution method; format: functional; details: isolate 583, 18 h
[22] = system: Staphylococcus epidermidis; assay: Inhibition of biofilm formation in Staphylococcus epidermidis ATCC 12228 at 1 to 8 ug/ml measured after 24 hrs by crystal violet staining based assay; format: functional, organism-based

For `CC[C@@H](C(=O)[C@@H](C)[C@@H](O)[C@H](C)[C@@H]1O[C@@H]([C@@H](CC)C(=O)OCC(F)(F)F)CC[C@@H]1C)[C@H]1O[C@]2(C=CC(=O)[C@]3(CC[C@@](C)([C@H]4CC[C@](O)(CC)[C@H](C)O4)O3)O2)[C@H](C)C[C@@H]1C`, the Activity (Pseudomonas aeruginosa [1]) was “inactive”, the Activity (Pseudomonas aeruginosa [2]) was “inactive” and the Activity (Escherichia coli [3]) was “inactive”. For the same molecule, the Activity (Escherichia coli [4]) was “inactive”.
`C#CCN[C@@H]1C=C[C@]2(O[C@H]([C@@H](CC)C(=O)[C@@H](C)[C@@H](O)[C@H](C)[C@@H]3O[C@@H]([C@@H](CC)C(=O)O)CC[C@@H]3C)[C@@H](C)C[C@H]2C)O[C@@]12CC[C@@](C)([C@H]1CC[C@](O)(CC)[C@H](C)O1)O2` gave an MIC [5] of 81.2 µM (≈ 64 µg/mL), an MIC [6] of 40.6 µM (≈ 32 µg/mL) and an MIC [7] of 1.27 µM (≈ 1 µg/mL). For the same molecule, the MIC (Staphylococcus aureus [8]) was 1.27 µM (≈ 1 µg/mL), the Activity (Pseudomonas aeruginosa [1]) was “inactive” and the Activity (Pseudomonas aeruginosa [2]) was “inactive”. For the same molecule, the MIC [9] was 1.27 µM (≈ 1 µg/mL), the MIC [10] was 1.27 µM (≈ 1 µg/mL) and the “diameter of the inhibition zone (DIZ)” value [11] was 34 mm. The MIC (Staphylococcus aureus [12]) was 81.2 µM (≈ 64 µg/mL), the MIC (Staphylococcus aureus [13]) was 2.54 µM (≈ 2 µg/mL) and the “diameter of the inhibition zone (DIZ)” value [14] was 30 mm. For the same molecule, the MIC (Staphylococcus aureus [15]) was 1.27 µM (≈ 1 µg/mL), the MIC [16] was 1.27 µM (≈ 1 µg/mL) and the inhibition [17] was “Active”. The MIC (Staphylococcus aureus [18]) was 2.54 µM (≈ 2 µg/mL), the MIC (Staphylococcus aureus [19]) was 1.27 µM (≈ 1 µg/mL) and the Activity (Escherichia coli [3]) was “inactive”. For the same molecule, the MIC [20] was 2.54 µM (≈ 2 µg/mL), the MIC (Staphylococcus aureus [21]) was 81.2 µM (≈ 64 µg/mL) and the Activity (Escherichia coli [4]) was “inactive”. The inhibition [22] was “Active”.
For `O=[N+]([O-])c1cc[n+]([O-])c2ccccc12` [4-NITROQUINOLINE-1-OXIDE], the “diameter of the inhibition zone (DIZ)” value [11] was 34 mm and the “diameter of the inhibition zone (DIZ)” value [14] was 22 mm.
For `C#CCNC(=O)[C@H](CC)[C@H]1CC[C@H](C)[C@H]([C@@H](C)[C@H](O)[C@H](C)C(=O)[C@H](CC)[C@H]2O[C@]3(C=CC(=O)[C@]4(CC[C@@](C)([C@H]5CC[C@](O)(CC)[C@H](C)O5)O4)O3)[C@H](C)C[C@@H]2C)O1`, the Activity (Pseudomonas aeruginosa [1]) was “inactive”, the Activity (Pseudomonas aeruginosa [2]) was “inactive” and the Activity (Escherichia coli [3]) was “inactive”. The Activity (Escherichia coli [4]) was “inactive”.
For `C#CCOC(=O)[C@H](CC)[C@H]1CC[C@H](C)[C@H]([C@@H](C)[C@H](O)[C@H](C)C(=O)[C@H](CC)[C@H]2O[C@]3(C=CC(=O)[C@]4(CC[C@@](C)([C@H]5CC[C@](O)(CC)[C@H](C)O5)O4)O3)[C@H](C)C[C@@H]2C)O1`, the Activity (Pseudomonas aeruginosa [1]) was “inactive”, the Activity (Pseudomonas aeruginosa [2]) was “inactive” and the Activity (Escherichia coli [3]) was “inactive”. For the same molecule, the Activity (Escherichia coli [4]) was “inactive”.
`CC[C@@H](C(=O)[C@@H](C)[C@@H](O)[C@H](C)[C@@H]1O[C@@H]([C@@H](CC)C(=O)O)CC[C@@H]1C)[C@H]1O[C@]2(C=C[C@@H](O)[C@]3(CC[C@@](C)([C@H]4CC[C@](O)(CC)[C@H](C)O4)O3)O2)[C@H](C)C[C@@H]1C` [SALINOMYCIN] showed an MIC [5] of 5.33 µM (≈ 4 µg/mL), an MIC [6] of 5.33 µM (≈ 4 µg/mL) and an MIC [7] of 1.33 µM (≈ 0.999 µg/mL). For the same molecule, the MIC (Staphylococcus aureus [8]) was 1.33 µM (≈ 0.999 µg/mL), the Activity (Pseudomonas aeruginosa [1]) was “inactive” and the Activity (Pseudomonas aeruginosa [2]) was “inactive”. The MIC [9] was 1.33 µM (≈ 0.999 µg/mL), the MIC [10] was 1.33 µM (≈ 0.999 µg/mL) and the “diameter of the inhibition zone (DIZ)” value [11] was 34 mm. For the same molecule, the MIC (Staphylococcus aureus [12]) was 2.66 µM (≈ 2 µg/mL), the MIC (Staphylococcus aureus [13]) was 1.33 µM (≈ 0.999 µg/mL) and the “diameter of the inhibition zone (DIZ)” value [14] was 32 mm. The MIC (Staphylococcus aureus [15]) was 2.66 µM (≈ 2 µg/mL), the MIC [16] was 2.66 µM (≈ 2 µg/mL) and the MIC (Staphylococcus aureus [18]) was 2.66 µM (≈ 2 µg/mL). For the same molecule, the MIC (Staphylococcus aureus [19]) was 1.33 µM (≈ 0.999 µg/mL), the Activity (Escherichia coli [3]) was “inactive” and the MIC [20] was 1.33 µM (≈ 0.999 µg/mL). The MIC (Staphylococcus aureus [21]) was 2.66 µM (≈ 2 µg/mL) and the Activity (Escherichia coli [4]) was “inactive”.
With `CC[C@@H](C(=O)[C@@H](C)[C@@H](O)[C@H](C)[C@@H]1O[C@@H]([C@@H](CC)C(=O)O)CC[C@@H]1C)[C@H]1O[C@]2(C=CC(=O)[C@]3(CC[C@@](C)([C@H]4CC[C@](O)(CC)[C@H](C)O4)O3)O2)[C@H](C)C[C@@H]1C` the MIC [5] was 5.34 µM (≈ 4 µg/mL), the MIC [6] was 5.34 µM (≈ 4 µg/mL) and the MIC [7] was 1.34 µM (≈ 1 µg/mL). For the same molecule, the MIC (Staphylococcus aureus [8]) was 2.67 µM (≈ 2 µg/mL), the Activity (Pseudomonas aeruginosa [1]) was “inactive” and the Activity (Pseudomonas aeruginosa [2]) was “inactive”. For the same molecule, the MIC [9] was 2.67 µM (≈ 2 µg/mL), the MIC [10] was 2.67 µM (≈ 2 µg/mL) and the “diameter of the inhibition zone (DIZ)” value [11] was 34 mm. The MIC (Staphylococcus aureus [12]) was 2.67 µM (≈ 2 µg/mL), the MIC (Staphylococcus aureus [13]) was 2.67 µM (≈ 2 µg/mL) and the “diameter of the inhibition zone (DIZ)” value [14] was 32 mm. The MIC (Staphylococcus aureus [15]) was 2.67 µM (≈ 2 µg/mL), the MIC [16] was 2.67 µM (≈ 2 µg/mL) and the inhibition [17] was “Active”. The MIC (Staphylococcus aureus [18]) was 2.67 µM (≈ 2 µg/mL), the MIC (Staphylococcus aureus [19]) was 2.67 µM (≈ 2 µg/mL) and the Activity (Escherichia coli [3]) was “inactive”. For the same molecule, the MIC [20] was 2.67 µM (≈ 2 µg/mL), the MIC (Staphylococcus aureus [21]) was 2.67 µM (≈ 2 µg/mL) and the Activity (Escherichia coli [4]) was “inactive”. The inhibition [22] was “Active”.
With `O=C(O)c1cn(C2CC2)c2cc(N3CCNCC3)c(F)cc2c1=O` the inhibition [17] was “Active” and the inhibition [22] was “Active”.
